How the values were obtained:
Assay in all cases: CelltiterGlo viability cell assay
Format in all cases: cell-based
[1] = system: CAL851; details: up to 30 μM; days 3 and 6; Prdm9 expressing line
Protocol: (§1) Supplementary Figure 13. […] Viability of
(§2) (a) Multiple Myeloma lines and (b) Breast Cancer cell lines following 3 or 6 days treatment with […]
(§3) manufacturer’s instructions as described in the Supplementary methods. Data are normalized to DMSO control. N=3 biological replicates, +/- SEM. Source data are provided as a Source Data […]
(§4) CelltiterGlo viability cell assay
(§5) Cells were seeded in 96 well plates at per-well densities of 10000 (MDA-MB436, ATCC-HTB130), 15000 (8226, kind gift from Rodger Tiedemann, Princess Margaret Cancer Centre), […]
(§6) kind gift from Rodger Tiedemann, Princess Margaret Cancer Centre) and 50000 (CAL851, kind gift from Mathieu Lupien, Princess Margaret Cancer Centre) and were treated at increasing concentrations of compounds ranging from 0.01 μM to 30 μM and assessed for proliferation using CelltiterGlo (Promega) following manufacturer’s instructions, as readout on days 3 and 6 as indicated. All cell lines were mycoplasma negative, as determined by MycoAlert™ Mycoplasma Detection Kit(Lonza). […]

[2] = system: HCC1143; details: up to 30 μM; days 3 and 6; matched control line
Protocol: as §1, §2, §3, §4, §5, §6

[3] = system: HCC1806; details: up to 30 μM; days 3 and 6; Prdm9 expressing line
Protocol: as §1, §2, §3, §4, §5, §6

[4] = system: MDA-MB-436; details: up to 30 μM; days 3 and 6; matched control line
Protocol: as §1, §2, §3, §4, §5, §6

[5] = system: RPMI-8226; details: up to 30 μM; days 3 and 6; matched control line
Protocol: as §1, §2, §3, §4, §5, §6

[6] = system: SKMM2; details: up to 30 μM; days 3 and 6; Prdm9 expressing line
Protocol: as §1, §2, §3, §4, §5, §6

Measured: Effect on proliferation (in words)

COc1cc(OC)cc(-c2noc(N3CCN(C)C4(CCN(c5ccccc5)CC4)C3)n2)c1 [MRK-740-NC]
did not have any significant effect: [1] | [2] | [3] | [4] | [5] | [6]
